Data on 1 compound can be found in ChEMBL document CHEMBL5252648, “Design, synthesis and bioactivity evaluation of a series of quinazolinone derivatives as potent PI3Kγ antagonist” (Bioorg Med Chem, 2023).

The structures appear in SMILES notation. Active and inactive are the calls of the source. The rule behind the calls is not given here.

The target of assay [1] is T1, Phosphatidylinositol 4,5-bisphosphate 3-kinase catalytic subunit delta isoform (Homo sapiens, UniProt O00329).
T1 sequence (O00329 whole entry): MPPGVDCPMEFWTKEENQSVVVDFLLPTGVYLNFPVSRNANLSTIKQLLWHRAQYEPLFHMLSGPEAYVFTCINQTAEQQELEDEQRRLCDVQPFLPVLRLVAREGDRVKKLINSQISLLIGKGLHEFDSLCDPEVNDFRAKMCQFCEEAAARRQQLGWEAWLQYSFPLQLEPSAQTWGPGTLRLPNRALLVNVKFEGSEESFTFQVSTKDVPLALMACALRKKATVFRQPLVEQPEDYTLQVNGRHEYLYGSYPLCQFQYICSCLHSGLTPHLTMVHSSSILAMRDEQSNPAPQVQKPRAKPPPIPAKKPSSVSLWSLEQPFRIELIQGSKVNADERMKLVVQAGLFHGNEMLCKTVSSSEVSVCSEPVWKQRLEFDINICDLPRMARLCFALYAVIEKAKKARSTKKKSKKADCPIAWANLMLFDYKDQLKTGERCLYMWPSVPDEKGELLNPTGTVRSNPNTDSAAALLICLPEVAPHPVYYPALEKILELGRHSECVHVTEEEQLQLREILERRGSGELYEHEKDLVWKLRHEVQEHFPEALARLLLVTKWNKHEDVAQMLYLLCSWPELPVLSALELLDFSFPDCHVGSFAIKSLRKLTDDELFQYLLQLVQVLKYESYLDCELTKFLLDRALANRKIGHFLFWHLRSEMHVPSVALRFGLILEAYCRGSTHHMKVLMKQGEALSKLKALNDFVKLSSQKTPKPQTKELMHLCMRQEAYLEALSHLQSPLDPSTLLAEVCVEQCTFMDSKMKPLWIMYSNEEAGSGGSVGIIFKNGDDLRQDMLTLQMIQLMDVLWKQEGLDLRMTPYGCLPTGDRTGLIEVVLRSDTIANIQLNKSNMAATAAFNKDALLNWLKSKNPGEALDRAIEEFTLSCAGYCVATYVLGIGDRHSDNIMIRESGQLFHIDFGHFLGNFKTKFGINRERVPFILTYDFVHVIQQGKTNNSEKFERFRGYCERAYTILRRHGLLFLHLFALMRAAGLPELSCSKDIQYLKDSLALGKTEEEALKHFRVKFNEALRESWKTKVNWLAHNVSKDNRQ
Description: Antagonist activity at PI3Kdelta (unknown origin) using PIP2 as substrate in presence of ATP incubated for 30 to 60 mins by ADP-glo based luminescence assay. A general note: In ADP-Glo the light output rises with the ADP produced.

In assay [2] the target is Phosphatidylinositol 4,5-bisphosphate 3-kinase catalytic subunit gamma isoform (Homo sapiens, UniProt P48736). Description: Antagonist activity at PI3Kgamma (unknown origin) using PIP2 as substrate in presence of ATP incubated for 30 to 60 mins by ADP-glo based luminescence assay.
Chain of Phosphatidylinositol 4,5-bisphosphate 3-kinase catalytic subunit gamma isoform (P48736 whole entry, canonical isoform): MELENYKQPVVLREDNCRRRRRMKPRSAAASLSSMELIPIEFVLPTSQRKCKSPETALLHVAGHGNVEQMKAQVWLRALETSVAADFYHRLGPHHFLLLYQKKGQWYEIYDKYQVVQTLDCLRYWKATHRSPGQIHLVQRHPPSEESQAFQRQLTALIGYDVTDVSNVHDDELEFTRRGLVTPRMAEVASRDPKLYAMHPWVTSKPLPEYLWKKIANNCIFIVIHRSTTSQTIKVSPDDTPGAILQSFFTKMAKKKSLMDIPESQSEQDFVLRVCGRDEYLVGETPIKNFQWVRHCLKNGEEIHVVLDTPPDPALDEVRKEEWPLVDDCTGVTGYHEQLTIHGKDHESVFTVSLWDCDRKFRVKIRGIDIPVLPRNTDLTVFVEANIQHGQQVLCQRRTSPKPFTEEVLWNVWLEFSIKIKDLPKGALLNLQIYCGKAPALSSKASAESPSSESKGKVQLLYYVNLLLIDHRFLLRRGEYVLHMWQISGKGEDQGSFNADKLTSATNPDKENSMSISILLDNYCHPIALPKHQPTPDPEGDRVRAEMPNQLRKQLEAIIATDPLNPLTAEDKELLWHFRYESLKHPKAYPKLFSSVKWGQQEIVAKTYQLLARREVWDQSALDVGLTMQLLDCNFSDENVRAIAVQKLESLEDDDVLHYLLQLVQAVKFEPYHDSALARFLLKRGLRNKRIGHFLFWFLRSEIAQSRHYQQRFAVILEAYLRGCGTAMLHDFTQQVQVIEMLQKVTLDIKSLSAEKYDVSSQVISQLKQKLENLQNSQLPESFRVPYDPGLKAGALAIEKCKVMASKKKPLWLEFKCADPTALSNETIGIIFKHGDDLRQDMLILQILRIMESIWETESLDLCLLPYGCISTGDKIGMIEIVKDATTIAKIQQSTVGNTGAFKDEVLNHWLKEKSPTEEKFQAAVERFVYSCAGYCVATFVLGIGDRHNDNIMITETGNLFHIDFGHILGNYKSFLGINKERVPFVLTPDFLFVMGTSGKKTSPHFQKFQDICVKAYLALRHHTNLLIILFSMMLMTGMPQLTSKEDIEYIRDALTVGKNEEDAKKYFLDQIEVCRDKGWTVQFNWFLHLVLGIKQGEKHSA
Assay [3] deals with RAW264.7. The experiment in a line: Cytotoxicity against mouse RAW264.7 cells assessed as reduction in cell viability incubated for 24 hrs by CCK-8 assay. It is filed as functional, cell-based. To be noted: RAW264.7, 24 h. A general note: Tetrazolium assays rely on reduction of a dye to a coloured formazan, in cell work by metabolically active cells.
Assay [4] has as its system THP-1. The experiment in a line: Cytotoxicity against human THP-1 cells assessed as reduction in cell viability incubated for 24 hrs by CCK-8 assay. It is filed as functional, cell-based. The following applies: THP-1, 24 h.
For another assay, the system named is MDA-MB-231. Description: Cytotoxicity against human MDA-MB-231 cells assessed as reduction in cell viability incubated for 24 hrs by CCK-8 assay. Type of assay: functional, cell-based. The following applies: MDA-MB-231, 24 h.
The next assay deals with T47D. The experiment in a line: Cytotoxicity against human T47D cells assessed as reduction in cell viability incubated for 24 hrs by CCK-8 assay. It is filed as functional, cell-based.
The subject of another assay is A549. Description: Cytotoxicity against human A549 cells assessed as reduction in cell viability incubated for 24 hrs by CCK-8 assay. The following applies: A549, 24 h. It is filed as functional, cell-based.
The next assay relates to B16-F10. The experiment in a line: Cytotoxicity against mouse B16-F10 cells assessed as reduction in cell viability incubated for 24 hrs by CCK-8 assay. It is filed as functional, cell-based. To be noted: B16-F10, 24 h.
The next assay has as its system MCF7. Description: Cytotoxicity against human MCF7 cells assessed as reduction in cell viability incubated for 24 hrs by CCK-8 assay. Type of assay: functional, cell-based. To be noted: MCF7, 24 h.
For another assay, the system named is Huh-7. The experiment in a line: Cytotoxicity against human Huh-7 cells assessed as reduction in cell viability incubated for 24 hrs by CCK-8 assay. It is filed as functional, cell-based. To be noted: Huh-7, 24 h.
The subject of assay [5] is Jurkat. The experiment in a line: Induction of apoptosis against human Jurkat cells assessed as viable cells at 1 uM measured for 24 hrs by Annexin V-FITC/propidium iodide staining based flow cytometry (reference value: 94.2 %). It is filed as functional. The following applies: read-out: Activity. For orientation: A flow cytometer gives signals particle by particle.
Assay [6] has as its system Jurkat. The experiment in a line: Induction of apoptosis against human Jurkat cells assessed as early apoptotic cells at 1 uM measured for 24 hrs by Annexin V-FITC/propidium iodide staining based flow cytometry (reference value: 5.76%). Type of assay: functional.
For assay [7], the system named is Jurkat. Description: Induction of apoptosis against human Jurkat cells assessed as necrotic cells at 1 uM measured for 24 hrs by Annexin V-FITC/propidium iodide staining based flow cytometry (reference value: 0.00%). Type of assay: functional.
In assay [8] the test system is Jurkat. Description: Induction of apoptosis against human Jurkat cells assessed as early apoptotic cells at 10 uM measured for 24 hrs by Annexin V-FITC/propidium iodide staining based flow cytometry (reference value: 5.76%). Type of assay: functional.
Assay [9] concerns Jurkat. The experiment in a line: Induction of apoptosis against human Jurkat cells assessed as late apoptotic cells at 10 uM measured for 24 hrs by Annexin V-FITC/propidium iodide staining based flow cytometry (reference value: 0.00%). It is filed as functional.
In assay [10] the test system is THP-1. The experiment in a line: Induction of apoptosis against human THP-1 cells assessed as early apoptotic cells at 0.1 uM measured for 24 hrs by Annexin V-FITC/propidium iodide staining based flow cytometry (reference value: 10.3%). It is filed as functional.
The test system of assay [11] is THP-1. The experiment in a line: Induction of apoptosis against human THP-1 cells assessed as necrotic cells at 0.1 uM measured for 24 hrs by Annexin V-FITC/propidium iodide staining based flow cytometry (reference value: 0.316%). It is filed as functional.
Assay [12] concerns the target T2, Serine/threonine-protein kinase AKT (Homo sapiens) (UniProt P31751+Q9Y243+P31749). The experiment in a line: Inhibition of AKT phosphorylation in human THP-1 cells at 1 uM incubated for 1 to 12 hrs by Western blot analysis relative to control. To be noted: time 1-12 hrs. Type of assay: cell-based.
Assay [13] concerns the target T2, Serine/threonine-protein kinase AKT (Homo sapiens). Description: Inhibition of AKT phosphorylation in human THP-1 cells incubated for 1 to 12 hrs by Western blot analysis relative to control. Type of assay: cell-based. The following applies: dose 0.1-10 µM, time 1-12 hrs.
In assay [14] the test system is RAW264.7. The experiment in a line: Inhibition of AKT phosphorylation in mouse RAW264.7 cells incubated for 1 to 12 hrs by Western blot analysis relative to control. Type of assay: cell-based. The following applies: dose 0.1-10 µM, time 1-12 hrs.
Assay [15] concerns the target T2, Serine/threonine-protein kinase AKT (Homo sapiens). Description: Inhibition of AKT phosphorylation in human Jurkat cells incubated for 1 to 12 hrs by Western blot analysis relative to control. It is filed as cell-based. To be noted: dose 0.1-10 µM, time 1-12 hrs.
Assay [16] deals with THP-1. Description: Induction of apoptosis against human THP-1 cells assessed as viable cells at 1 uM measured for 24 hrs by Annexin V-FITC/propidium iodide staining based flow cytometry (reference value: 85.6%). It is filed as functional. To be noted: read-out: Activity.
In assay [17] the test system is THP-1. Description: Induction of apoptosis against human THP-1 cells assessed as late apoptotic cells at 1 uM measured for 24 hrs by Annexin V-FITC/propidium iodide staining based flow cytometry (reference value: 3.70%). Type of assay: functional.
The test system of assay [18] is THP-1. Description: Induction of apoptosis against human THP-1 cells assessed as early apoptotic cells at 10 uM measured for 24 hrs by Annexin V-FITC/propidium iodide staining based flow cytometry (reference value: 10.3%). Type of assay: functional.

T2 sequence (P31749 whole entry, looked up): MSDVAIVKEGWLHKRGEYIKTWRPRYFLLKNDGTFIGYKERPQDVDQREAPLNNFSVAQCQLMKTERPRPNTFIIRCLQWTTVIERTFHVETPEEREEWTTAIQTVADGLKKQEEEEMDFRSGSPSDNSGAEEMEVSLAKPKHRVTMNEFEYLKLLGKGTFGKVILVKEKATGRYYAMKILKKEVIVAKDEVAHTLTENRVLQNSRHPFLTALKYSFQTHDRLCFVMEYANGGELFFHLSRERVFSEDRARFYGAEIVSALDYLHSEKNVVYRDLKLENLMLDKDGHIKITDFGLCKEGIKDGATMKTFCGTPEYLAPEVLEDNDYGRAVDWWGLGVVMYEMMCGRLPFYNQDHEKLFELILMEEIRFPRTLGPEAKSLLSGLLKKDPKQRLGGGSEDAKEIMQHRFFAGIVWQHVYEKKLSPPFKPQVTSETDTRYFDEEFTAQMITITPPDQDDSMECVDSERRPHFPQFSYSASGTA
T2 sequence (P31751 whole entry, looked up): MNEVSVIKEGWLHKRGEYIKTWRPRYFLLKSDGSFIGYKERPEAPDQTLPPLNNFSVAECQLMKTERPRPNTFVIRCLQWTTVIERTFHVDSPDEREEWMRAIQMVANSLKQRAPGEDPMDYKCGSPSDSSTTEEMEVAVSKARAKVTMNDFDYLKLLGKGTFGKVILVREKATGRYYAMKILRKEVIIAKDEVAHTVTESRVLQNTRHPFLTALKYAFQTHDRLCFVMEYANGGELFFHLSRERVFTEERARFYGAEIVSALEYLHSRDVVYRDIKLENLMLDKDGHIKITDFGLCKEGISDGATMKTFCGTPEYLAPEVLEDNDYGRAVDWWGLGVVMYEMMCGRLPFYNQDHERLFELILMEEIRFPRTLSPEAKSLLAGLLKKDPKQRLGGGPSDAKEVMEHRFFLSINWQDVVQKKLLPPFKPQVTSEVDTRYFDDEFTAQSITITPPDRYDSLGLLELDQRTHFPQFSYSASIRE
T2 sequence (Q9Y243 whole entry, looked up): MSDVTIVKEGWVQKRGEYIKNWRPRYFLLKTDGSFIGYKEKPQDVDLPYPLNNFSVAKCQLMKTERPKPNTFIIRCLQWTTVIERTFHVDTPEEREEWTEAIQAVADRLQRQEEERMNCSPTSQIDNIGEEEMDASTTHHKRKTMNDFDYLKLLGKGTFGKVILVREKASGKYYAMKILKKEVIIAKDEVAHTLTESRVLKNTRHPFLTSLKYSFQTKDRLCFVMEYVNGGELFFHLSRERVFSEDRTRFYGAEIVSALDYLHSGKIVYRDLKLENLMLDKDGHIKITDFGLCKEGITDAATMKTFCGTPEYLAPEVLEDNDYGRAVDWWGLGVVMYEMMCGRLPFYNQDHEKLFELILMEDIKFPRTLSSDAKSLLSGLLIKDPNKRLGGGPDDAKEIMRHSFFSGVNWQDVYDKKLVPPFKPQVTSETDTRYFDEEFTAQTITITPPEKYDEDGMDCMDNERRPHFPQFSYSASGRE

For the compound `COc1ccc(C#Cc2cccc3cc(C(C)Nc4ncnc5[nH]cnc45)n(-c4ccccc4)c(=O)c23)cc1` (centres undefined), the IC50 (in general, the point on the concentration scale where inhibition reaches its midpoint) in [1] is 0.0131 µM; in assay [2] it was 0.208 µM; with RAW264.7 [3], 4.54 µM; in the assay on THP-1 [4] it was 7.47 µM; in the assay on MDA-MB-231, 6.6 µM; with T47D, greater than 100 µM. Also, the IC50 is greater than 100 µM with A549, greater than 100 µM in the assay on B16-F10, greater than 100 µM in the assay on MCF7 and 5.05 µM with Huh-7. In addition, the viability at 1 µM with Jurkat [5] was found to be 82.3%; with THP-1 [16] it was 59.6%. The Activity came out at 17.7% in the assay with Jurkat [6]; 0% in the assay with Jurkat [7]; 69.7% with Jurkat [8]; 0.047% in the assay on Jurkat [9]; 25.3% in the assay on THP-1 [10]; 0.125% with THP-1 [11]. Moreover, the values for the Activity in the assay on THP-1 [17] and in the assay on THP-1 [18] were 4.63% and 24.6%, respectively. Besides, in [12], the inhibition result is “Active”. Further, the inhibition result (in [13]; in the assay on RAW264.7 [14]; in assay [15]) was “Dose-Dependent Effect” in each case.
